This is an account of results in patent US20250176550A1, “HERBICIDE COMPOSITION OF URACIL COMPOUND CONTAINING CARBOXYLATE FRAGMENT AND THE USE THEREOF” (Jiangsu Flag Chemical Industry Co., Ltd., priority 2022, published 2025).

Holding throughout (type): in vivo
One test deals with eleusine indica. Kind of test: Indoor virulence and combined effect, greenhouse pot test, pre-emergence soil spray treatment, fresh weight inhibition. How it is done: (§1) The active ingredients A and B are respectively screened and an indoor combined effect of the composition on weeds was evaluated by an indoor test and a field test, to determine a combined effect of the composition on weeds.
(§2) Quantitative seeds of Poaceae weeds (echinochloa crusgalli, Digitaria sanguinalis, setaria viridis, Eleusine indica, avena fatua, alopecurus japonicus, alopecurus aequalis, Lolium multiflorum) and broadleaf weeds (eclipta prostrata, rorippa dubia, Abutilon theophrasti, conyza canadensis, veronica persica, myosoton aquaticum, polygonum lapathifolium, galium aparine var. tenerum, alisma plantago-aquatica, geranium carolinianum) were sown in paper cup containing nutrient soil with a diameter of 7 cm, covered with soil for 1 cm after sowing. After pressing and watering, they were cultured in a greenhouse according to a conventional method. Poaceae weeds grew to 3˜4 leaf stage, broad-leaved weeds grew to 4˜6 leaf stage, spraying treatment to both stem and leaf was performed; and pre-seedling soil spray treatment was performed 24 hours after sowing. Following an experimental design dosage, a WP-2000 walking spray tower (spindle speed 96 mm/r, spray height 200 mm, effective spray amplitude of nozzle 350 mm, nozzle flow rate 390 mL/min, nozzle walking speed 210 mm/s) was used for the spray treatment. The experiment was repeated three times. After being treated, a sample material is placed in an operation hall, and after the drug solution is naturally dried out, the sample material is placed in a greenhouse and managed according to the conventional method. A reaction of weeds to the drug agent is observed and recorded, and a regularly visual check of a control effect of the drug agent on weeds was performed after the treatment.
(§3) All of original drugs were using acetone as a solvent, being diluted with 0.1 wt % emulsifier of Tween-80 aqueous solution, and being diluted right before using.
(§4) When determining a ratio or content of the active ingredient A and the active ingredient B, it should be measured from characteristics of action of both agents and virulence thereof, as well as the main purpose of use of a formula shall also be considered in. In the present study, on a basis of previous pre-test, the dosages of the active ingredient A and the active ingredient B were set, when being used alone and mixed, as shown in the following table. Water containing no agent, but containing the same solvent and emulsifier was used as a blank control.
(§5) Repeat 4 times for each treatment, 3 pots per treatment each time and 30 weed seeds were sown for each pot.
(§6) Adopting an absolute number survey method, using a blade to cut the whole seedling of surviving weed along soil surface, and weighting the fresh weight of the weed with an analytical balance. For weeds that had died, counting the fresh weight as zero.
(§7) Survey period and frequency: 21 days after the treatment, total 1 investigation.
(§8) The theoretical fresh weight inhibition rate (E0-Expected Efficacy=[…]) of each treatment combination was calculated by Gowing method, and then compared with the measured inhibition rate (E-Observed Efficacy) to evaluate the combined effect type of both on weeds. When E-E0 value was greater than 10%, it was counted as a synergistic effect, less than −10%, it was counted as an antagonistic effect, and between −10%˜10%, it was counted as an additive effect. According to a plurality of factors including an actual control efficacy, a herbicide characteristic, a formula balance and other factors to determine the best ratio. In the formula, X is the fresh weight inhibition rate of the ingredient A at a dosage of P; Y is the fresh weight inhibition rate of the active ingredient B at a dosage of Q.
(§9) The statistical results are shown in Table 1 to Table 44 below, except for those marked clearly as “pre-emergence treatment”, all others are “post-emergence treatment”. […]

Test [1] concerns eclipta prostrata. The test is described as above. How it is done:
as §1, §2, §3, §4, §5, §6, §7, §8, §9

Another test deals with digitaria sanguinalis. The test is described as above. The method, then:
as §1, §2, §3, §4, §5, §6, §7, §8, §9

The subject of the next test is veronica persica. Kind of test: Indoor virulence and combined effect, greenhouse pot test, post-emergence stem and leaf spray, fresh weight inhibition. Put shortly: (§10)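 Weeds in greenhouse pots received a spray-tower treatment, either post-emergence at the 3–4 leaf (grasses) or 4–6 leaf (broadleaf) stage, or pre-emergence as a soil spray 24 h after sowing. Compounds were applied in acetone diluted with 0.1 wt% Tween-80 water, alone or mixed, in g/ha. Fresh weight inhibition was measured at 21 days, with synergy judged by Gowing expected efficacy (E−E0 >10%).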

For the next test, the system named is setaria viridis. The description is as above. In outline: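 Greenhouse potted weeds sprayed post-emergence on stem and leaf at 3–4 leaf stage, with A and B alone or mixed; acetone solutions diluted in 0.1 wt% Tween-80, solvent-emulsifier water as blank.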
The subject of test [2] is eclipta prostrata. Described as above. In outline:
as §10

In the case of `CCOC(=O)C(C)(C)OC(=O)c1cc(-n2c(=O)cc(C(F)(F)F)n(C)c2=O)c(F)cc1Cl` [Compound A-250], the “Fresh weight inhibition rate %, A single agent” value (shortened to “Fresh weight inhibition rate %”) was 69.44% with eleusine indica (Table 21, A 25 g a.i./ha); 90.86% in the test on eleusine indica (Table 21, A 30 g a.i./ha); 52.89% with eclipta prostrata [1] (Table 28, A 5 g a.i./ha); 66.05% in the test with eclipta prostrata [1] (Table 28, A 10 g a.i./ha); 68.5% in the test on eclipta prostrata [1] (Table 28, A 15 g a.i./ha); 78.12% in the test on eclipta prostrata [1] (Table 28, A 20 g a.i./ha). Also, the “Fresh weight inhibition rate %” value in the test on digitaria sanguinalis (Table 39, A 15 g a.i./ha) is 68.96%; in the test on digitaria sanguinalis (Table 39, A 20 g a.i./ha), 75.50%; in the test on digitaria sanguinalis (Table 39, A 25 g a.i./ha), 85.50%; with digitaria sanguinalis (Table 40, A 15 g a.i./ha) it was 68.96%; in the test with digitaria sanguinalis (Table 40, A 20 g a.i./ha), 75.50%; with veronica persica (Table 9, 10 g a.i./ha, post-emergence, 21 days after treatment) it was 68.79%. Further, the “Fresh weight inhibition rate %” value in the test on veronica persica (Table 9, 15 g a.i./ha, post-emergence, 21 days after treatment) is recorded as 70.47%; with veronica persica (Table 9, 20 g a.i./ha, post-emergence, 21 days after treatment), 82.86%; with veronica persica (Table 23, A 5 g a.i./ha), 62.6%; in the test on veronica persica (Table 23, A 10 g a.i./ha), 68.79%; with veronica persica (Table 23, A 15 g a.i./ha), 70.47%; in the test on veronica persica (Table 24, A 5 g a.i./ha) it was 62.6%. For the same compound, the “Fresh weight inhibition rate %” value with veronica persica (Table 24, A 10 g a.i./ha) amounted to 68.79%; in the test with veronica persica (Table 24, A 15 g a.i./ha), 70.47%; in the test on veronica persica (Table 24, A 20 g a.i./ha), 82.86%; in the test with veronica persica (Table 26, A 2 g a.i./ha), 24.6%; in the test with veronica persica (Table 26, A 5 g a.i./ha), 62.6%; in the test on veronica persica (Table 26, A 10 g a.i./ha), 68.79%. In addition, the “Fresh weight inhibition rate %” value in the test on veronica persica (Table 26, A 15 g a.i./ha) was 70.47%; in the test on setaria viridis (Table 6, 10 g a.i./ha, post-emergence, 21 days after treatment), 52.54%; in the test with setaria viridis (Table 6, 15 g a.i./ha, post-emergence, 21 days after treatment), 65.7%; in the test with setaria viridis (Table 6, 20 g a.i./ha, post-emergence, 21 days after treatment), 78.77%; in the test on setaria viridis (Table 8, 10 g a.i./ha, post-emergence, 21 days after treatment) it was 52.54%; in the test on setaria viridis (Table 8, 15 g a.i./ha, post-emergence, 21 days after treatment) it was 65.7%. Besides, the “Fresh weight inhibition rate %” value in the test with setaria viridis (Table 8, 20 g a.i./ha, post-emergence, 21 days after treatment) came to 78.77%; with setaria viridis (Table 10, A 10 g a.i./ha) it was 52.54%; with setaria viridis (Table 10, A 15 g a.i./ha) it was 65.7%; with setaria viridis (Table 10, A 20 g a.i./ha), 78.77%.
For the compound `COCCOC(=O)C(C)(C)OC(=O)c1cc(-n2c(=O)cc(C(F)(F)F)n(C)c2=O)c(F)cc1Cl` [Compound A-273], the “Fresh weight inhibition rate %” value with eclipta prostrata [2] (Table 11, A 2 g a.i./ha) was determined as 28.12%; in the test with eclipta prostrata [2] (Table 11, A 4 g a.i./ha) it was 38.50%; with eclipta prostrata [2] (Table 11, A 8 g a.i./ha) it was 46.05%; with eclipta prostrata [2] (Table 11, A 16 g a.i./ha), 52.89%; in the test with eclipta prostrata [2] (Table 12, A 4 g a.i./ha), 38.50%; in the test with eclipta prostrata [2] (Table 12, A 8 g a.i./ha) it was 46.05%. Also, the “Fresh weight inhibition rate %” value is 52.89% in the test with eclipta prostrata [2] (Table 12, A 16 g a.i./ha); 28.12% in the test on eclipta prostrata [2] (Table 42, A 2 g a.i./ha); 38.50% in the test on eclipta prostrata [2] (Table 42, A 4 g a.i./ha); 46.05% in the test on eclipta prostrata [2] (Table 42, A 8 g a.i./ha); 52.89% in the test on eclipta prostrata [2] (Table 42, A 16 g a.i./ha); 38.50% in the test with eclipta prostrata [2] (Table 43, A 4 g a.i./ha). In addition, the “Fresh weight inhibition rate %” value in the test with eclipta prostrata [2] (Table 43, A 8 g a.i./ha) was 46.05%.
